# According to patent US11345701B1, “KRAS mutant protein inhibitors” (Jacobio Pharmaceuticals Co., Ltd., priority 2021, dated 2022):
# What was measured:
# HIS-KRAS(G12C) = HIS-KRAS(G12C) (Homo sapiens (Human), UniProt P01116, G12C); assay: SOS1 catalyzed nucleotide exchange assay (TR-FRET); assay type: biochemical
# Method: TR-FRET signals were then read on Tecan Spark multimode microplate reader. […] TR-FRET ratios for each individual wells were calculated by equation: TR-FRET ratio=(Signal F515/Signal F486)*10000. Then the data were analyzed using a 4-parameter logistic model to calculate IC50 values.
# [1] = tested on: NCI-H358 cells expressing KRAS G12C mutant protein; assay: Phospho-ERK1/2(THR202/TYR204) HTRF assay; assay type: cell-based
# Method: The NCI-H358 cells in culture medium were seeded in 96-well plates at a concentration of 40,000 cells/well and then put in a 37° C./5% CO2 cell incubator to incubate overnight. […] After 2 hours incubation in a 37° C./5% CO2 cell incubator, the assay medium in 96-well plates was removed, then 50 μL of 1× blocking reagent-supplemented lysis buffer (Cisbio) was added and the plates were incubated at 25° C. for 45 min with shaking. 10 μL of cell lysates from the 96-well plates were transferred to a 384-well plate (Greiner) containing 2.5 μL/well HTRF® pre-mixed antibodies (Cisbio 64AERPEH). Incubate 4 hours at 25° C. and then read HTRF signals on Tecan Spark multimode microplate reader. The data were analyzed using a 4-parameter logistic model to calculate IC50 values.
# [2] = Mouse pharmacokinetic study; assay type: in vivo, Balb/c mouse
# Method: The purpose of this study was to evaluate the pharmacokinetic properties of compounds in Balb/c mouse (♀) following single dose administration. The day before administration, mice were fasted overnight and free access to water. Six mice were needed for each compound and the six mice were divided into two groups (n=3/group), group A and group B. Mice in group A were treated with a single 3 mg/kg dose of compound (iv). Mice in group B were treated with a single 10 mg/kg dose of compound (po). For each mouse in group A, blood samples were collected at pre-dose, and at the time point of 0.083, 0.25, 0.5, 1, 2, 4, 6, 8 and 24 h post-dose. For each mouse in group B, blood samples were collected at pre-dose, and at the time point of 0.25, 0.5, 1, 2, 3, 4, 6, 8 and 24 h post-dose. Blood samples were placed on ice until centrifugation to obtain plasma samples. The plasma samples were stored at −80° C. until analysis. The concentration of compound in plasma samples was determined using a LC-MS/MS method.
# [3] = Dog pharmacokinetic study; assay type: in vivo, beagle dog; details: for CL / VSS / AUC0-24h / Cmax / Oral BA (F %): beagle dog; for CL / VSS: 1 mg/kg, iv; for AUC0-24h / Cmax / Oral BA (F %) / AUC0-24 h relative to the control compound Amg-510: 3 mg/kg, po
# Method: The purpose of this study was to evaluate the pharmacokinetic properties of compounds in beagle dog following single dose administration. The day before administration, dogs were fasted overnight and free access to water. Four beagle dogs were needed for each compound and the four dogs were divided into two groups, group A and group B (one male(♂) and one female (♀) in each group). Dogs in group A were treated with a single 1 mg/kg dose of compound (iv). Dogs in group B were treated with a single 3 mg/kg dose of compound (po). For dogs in group A, blood samples were collected at pre-dose, and at the time point of 0.083, 0.25, 0.5, 1, 2, 4, 6, 8 and 24 h post-dose. For dogs in group B, blood samples were collected at pre-dose, and at the time point of 0.25, 0.5, 1, 2, 4, 6, 8 and 24 h post-dose. Blood samples were placed on ice until centrifugation to obtain plasma samples. The plasma samples were stored at −80° C. until analysis. The concentration of compound in plasma samples was determined using a LC-MS/MS method.
# [4] = tested on: NCI-H1373 (KRAS^G12C) xenograft; assay: Efficacy in NCI-H1373 (KRAS G12C) xenograft model; assay type: in vivo, BALB/c nude mice; details: 10 mg/kg, QD
# Method: NCI-H1373 (KRAS^G12C) cells (5.0E+06 cells) were injected subcutaneously into the right flank of female BALB/c nude mice (6-8 weeks) in a mixture with PBS and Matrigel (Corning) (PBS/Matrigel=1:1(v/v)). Mice were monitored daily and caliper measurements began when tumors became visible. Tumor volume was calculated by measuring two perpendicular diameters using the formula: (L*W^2)/2 in which L and W refer to the length and width tumor diameter respectively. When the average tumor volume reached 150-200 mm^3, mice were grouped randomly (n=6/group) and treated with compounds. Tumor volume and mice weight was measured twice a week during treatment (˜ 3 weeks). Tumor growth inhibition rates were calculated by TGI %=(1−(Vt−Vt0)/(Vc−Vc0))*100%, wherein Vc and Vt are the mean tumor volume of control and treated groups at the end of the study respectively, and Vc0 and Vt0 are the mean tumor volume of control and treated groups at the start respectively. The results are in the following Table 7 and FIG. 1: […]
# [5] = tested on: SW837 (KRAS^G12C) xenograft; assay: Safety exploration in SW837 (KRAS G12C) xenograft model; assay type: in vivo; details: 400 mg/kg, po, QD for 22 days, female NOD SCID mice, FIG. 2
# Method: SW837 (KRAS^G12C) cells (1.0E+07 cells) were injected subcutaneously into the right flank of female NOD SCID mice (6-8 weeks) in a mixture with PBS and Matrigel (Corning) (PBS/Matrigel=1:1(v/v)). Mice were monitored daily and caliper measurements began when tumors became visible. Tumor volume was calculated by measuring two perpendicular diameters using the following formula: (L*W^2)/2 in which L and W refer to the length and width tumor diameter respectively. After mice were grouped to study the efficacy, the remaining mice (n=8) were used to explore the safety. The mice were treated with 400 mg/kg Compound 2-1 (po, QD) for 22 days, and mice body weight was measured twice a week during treatment. From FIG. 2, it can be seen that the Compound 2-1 has good safety.
# [6] = Balb/c mouse (female), 3 mg/kg, iv
# [7] = Balb/c mouse (female), 10 mg/kg, po
# HIS-KRAS(G12C), sequence (P01116 other isoform, or with tags, fused parts or gaps G12C): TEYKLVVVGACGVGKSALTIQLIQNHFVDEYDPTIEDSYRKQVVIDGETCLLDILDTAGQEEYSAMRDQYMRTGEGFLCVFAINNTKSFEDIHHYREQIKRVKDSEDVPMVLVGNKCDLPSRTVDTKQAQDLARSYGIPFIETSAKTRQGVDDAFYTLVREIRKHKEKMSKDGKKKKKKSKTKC
smiles,measurement,setting,value
"C=CC(=O)N1CCN(c2nc(=O)n(-c3c(C)ccnc3C(C)C)c3nc(-c4c(N)c(F)c(F)c(F)c4F)c(F)cc23)[C@@H](C)C1 (atropisomer, axis not shown; (M)) [Compound 2-1, (M)-4-((S)-4-acryloyl-2-methylpiperazin-1-yl)-7-(2-amino-3,4,5,6-tetrafluorophenyl)-6-fluoro-1-(2-isopropyl-4-methylpyridin-3-yl)pyrido[2,3-d]pyrimidin-2(1H)-one]",IC50,"HIS-KRAS(G12C); GDP-loaded HIS-KRAS(G12C), 1 hour pre-incubation, TR-FRET",1.19 nM
same,Inhibitory activity relative to the control compound Amg-510,HIS-KRAS(G12C); SOS1 catalyzed nucleotide exchange assay,about 2 times
same,IC50,"[1]; 2 hours incubation, read-out: p-ERK IC50",14.5 nM
same,Inhibitory activity relative to the control compound Amg-510,[1]; phospho-ERK1/2 HTRF assay,about 2 times
same,CL,[2]; [6],38.9 mL/min/kg
same,Vss,[2]; [6],1.28 L/kg
same,AUC0-24h,[2]; [7],2618 ng·h/mL
same,Cmax,[2]; [7],2440 ng/mL
same,Oral BA (F %),[2]; [7],58.9%
same,Pharmacokinetic properties in words,"[2]; mouse model, 3 mg/kg iv and 10 mg/kg po",good pharmacokinetic properties
same,Pharmacokinetic properties in words,"[3]; beagle dog model, compared with Amg-510",excellent pharmacokinetic properties
same,CL,[3]; female,4.40 mL/min/kg
same,VSS,[3]; female,0.295 L/kg
same,AUC0-24h,[3]; female,5022 ng·h/mL
same,Cmax,[3]; female,2330 ng/mL
same,Oral BA (F %),[3]; female,44.3%
same,CL,[3]; male,4.15 mL/min/kg
same,VSS,[3]; male,0.255 L/kg
same,AUC0-24h,[3]; male,7308 ng·h/mL
same,Cmax,[3]; male,4080 ng/mL
same,Oral BA (F %),[3]; male,60.9%
same,AUC0-24 h relative to the control compound Amg-510,[3]; female beagle dog,more than 12 times
same,AUC0-24 h relative to the control compound Amg-510,[3]; male beagle dog,more than 3 times
same,Tumor response in words,[4]; Table 7 and FIG. 1,regression of the tumor has been observed
same,Tumor volume at the end (Day 21),"[4]; female BALB/c nude mice, Day 21",27 mm^3
same,Tumor volume at the start,"[4]; female BALB/c nude mice, baseline",192 mm^3
same,TGI %,"[4]; female BALB/c nude mice, end of study (Day 21)",110%
same,Safety judged from mice body weight,[5],good safety
